Entries after “also recorded” stand apart in the source; their conditions may differ.
What was measured:
[1] = system: C. davidsoni; experiment: GC-EAD of beetle antennae to Pichia kluyveri headspace volatiles; conditions: female and male adults, P. kluyveri headspace volatiles
Excerpt: FIG. 6. GC-EAD responses of female (♀) and male (♂) C. davidsoni adults to headspace volatiles (black, FID chromatogram) of the fruit yeast Pichia kluyveri. […] IS=Internal standard, IS1=n-octane, IS2=Nonyl acetate.

[2] = system: Carpophilus truncatus; experiment: Cage dual-choice bioassay, co-attractant with one ingredient suppressed; format: in vivo; conditions: for attractiveness of commercial co-attractant in the absence of the compound / role of the compound: test solution lacking one ingredient vs CL in 45% ethanol, fifty beetles
Experimental: FIG. 9. Boxplots representing the results of lab-conducted cage dual-choice assays on Carpophilus truncatus responses to odours. Between 50 and 100 beetles were simultaneously exposed to a solution of co-attractant […] one ingredient at a time was suppressed (treatments). The attraction index was calculated as follows: (number of beetles in test solution−number of beetles in control)/(total number of beetles). […] Line in the boxplots correspond to the median, top and bottom of the boxplots represent the 75th and 25th percentiles respectively while error bars depict the 5th and 95th percentiles. White dots are outliers. n correspond to the replication of each experiments. p values result from paired t-tests and stars indicate the level of statistical significance.
Fifty beetles were simultaneously exposed to a solution of co-attractant (control) and a solution of co-attractant from which one additive at a time was suppressed (treatments, see table 4). The attraction index was calculated as follows: (number of beetles in test solution—number of beetles in control)/(total number of beetles).

[3] = Gravimetric release rate and longevity of lure constituents in LDPE sachets; format: physicochemical; conditions: for Est. long. / Release rate: compound on wick in LDPE sachet, thickness, size, load per Table 1
Experimental: The release rates of co-attractant components formulated in low density polyethylene (LDPE) sachets were investigated (FIG. 1).
The release rate and theoretical longevity of the lure constituents in sachets were tested in gravimetric experiments. Data were used to determine the optimal sachet thickness, size (surface area) and estimated longevity of individual components (FIG. 2).
A fixed volume (1 ml) of each lure constituent was individually loaded in 50 cm 2 of different thicknesses (50, 100, 150 and 200 μm). Sachets were weighed daily for the first 5 days and later at greater time intervals. Release rates of the compounds through different sachet thicknesses were inferred using sachet weight loss over time (FIG. 2). Only the linear part of the weight loss curve was considered in the calculations of release rates. The maximum estimated longevity was deduced from the calculated release rate and corrected based on adjusted sachet size and volume of chemical loaded.

[4] = Sachet size, thickness, release rate and lure longevity studies (Table 3, based on GC-MS analysis); format: physicochemical; conditions: for Est. long. / Release rate: LDPE sachet per Table 3, based on GC-MS analysis
Experimental: Studies determining optimal sachet size and thickness, lure concentration, release rates and lure longevity were performed as described in Table 3.

[5] = Release of compounds from the commercial co-attractant solution; format: physicochemical; conditions: for Release rate (commercial solution): compound in commercial co-attractant solution; for duration of release in the current solution: current co-attractant solution
[6] = system: C. davidsoni; experiment: Field trial of synthetic blends in peach orchard (Example 6); format: in vivo; conditions: CL+2PA, CL+IA, CL+IA+2PA vs CL; five weeks, N=6
Excerpt: C. davidsoni catches using prototype co-attractant solutions in a stone fruit orchard (Shepparton, VIC). CL corresponds to the control (original Carpophilus Lure co-attractant), CL+IA (co-attractant+Isopentyl Acetate), CL+PA (co-attractant+2-Phenethyl acetate) and CL+IA+PA (co-attractant+Isopentyl Acetate+2-Phenethyl acetate). […] Number of replicates per treatment N=6.
Synthetic blends consisting of the combination of the existing carpophilus lure with two new potential yeast attractants; namely Isopentyl acetate and 2-phenylethyl acetate; were formulated based on their respective ratio to ethyl acetate (Table 2) and tested in the field.
Field trials were conducted in a peach orchard in Invergordon (Victoria). Treatments included the original carpophilus lure (CL: control), the original lure combined with Isopentyl acetate (CL+IA) or with 2-phenylethylacetate (CL+2PA) or both (CL+IA+2PA). Six replicates of each odour blend were placed in black funnel traps held on pickets at 1.5 m height, arranged in randomized transects. Beetles were collected and synthetic blends replaced weekly over a 5-week period.
These compounds were tested either separately or together in the existing Carpophilus co-attractant and compared with the original co-attractant in the field. The trial was conducted over a five week period during which the beetles were collected and the lure solutions renewed weekly.

[7] = system: C. truncatus; experiment: GC-EAD responses to W. rabaulensis odour; conditions: W. rabaulensis headspace odour
Experimental: FIG. 10. […] 1-Acetaldehyde. 2-Ethanol. 3-Isobutanol. 4-Isopentyl alcohol. 5-2-Methyl butanol. 6-Isobutyl acetate. 7-Isopentyl acetate.
As co-attractants are derived from microbial odours, beetle attraction towards yeast odours isolated from the insect's gut was tested (Farrukh Baig, PhD thesis, 2020). […] Synthetic blends of the yeast odours were developed and field tested.

Structure (SMILES)	GC-EAD antennal response [1]	attractiveness of commercial co-attractant in the absence of the compound / role of the compound [2]	Est. long. [3]	Release rate [3] [mg/day]	Est. long. [4]	Release rate [4] [mg/day]	Release rate (commercial solution) [5] [mg/day]	further results
CC(=O)OCc1ccco1 [2-furanmethanol acetate]	consistent physiological responses							
CCC(C)CO (stereo not shown) [2-methyl-butanol]	consistent physiological responses	significantly more attractive	200+ days	4.3	200+ days	4.3	0.6	
CC(=O)OCCc1ccccc1 [2-phenylethylacetate]	consistent physiological responses				70+ days	28		effect on beetle capture of adding the compound to the original co-attractant (CL) [6]: significantly more beetles; GC-EAD antennal response ([1]; listed as 2-phenethyl acetate): strong sensitivity; longevity in sachets ([4]; dispensed in sachets): over 70 days
CCC(=O)OCCc1ccccc1 [2-phenylethylpropionate]	consistent physiological responses							
CCCCOC(C)=O [Butyl acetate]	consistent physiological responses							
CCCCCCCC(=O)OCC [Ethyl octanoate]	consistent physiological responses							
CC(=O)OCC(C)C [Isobutyl acetate]	consistent physiological responses							antennal responses (GC-EAD) [7]: strong antennal responses
CC(C)CO [Isobutyl alcohol]	consistent physiological responses	seem to not influence	200+ days	4.9	200+ days	4.9	2.9	
CC(=O)OCCC(C)C [Isopentyl acetate]	consistent physiological responses; also recorded: strong sensitivity							effect on beetle capture of adding the compound to the original co-attractant (CL) [6]: reduce lure attractiveness; antennal responses (GC-EAD) [7]: strong antennal responses
CC(C)CCO [Isopentyl alcohol]	consistent physiological responses	significantly less attractive	300 days	3.4	300 days	3.4	3.3	effect of increased concentrations on lure efficacy ([2]; further cage bioassay experiments): increase in lure efficacy
CC(=O)OCc1ccccc1 [Phenylmethyl acetate]	consistent physiological responses							
CCCOC(C)=O [Propyl acetate]	consistent physiological responses							
CC=O [acetaldehyde]		tend to act as an attractant	7 days	50	40 days	50	43	duration of release when applied in sachets ([3]; LDPE sachets): 1 week; duration of release in the current solution [5]: 1 days
CCO [ethanol]		significantly less attractive						permeation through the LDPE layers ([3]; LDPE sachets): limited permeation; maximum release rate achievable with thin sachets ([3]; thin LDPE sachets, lab experiments): ~25 mg/day; ethanol emission rates in the commercial lure ([5]; commercial lure): 2.5 g/day
CCOC(C)=O [ethyl acetate]	consistent physiological responses	seem to not influence	15 days	136	15 days	136	110	duration of release when applied in sachets ([3]; LDPE sachets): 1 week; duration of release in the current solution [5]: 1 days
CCC1CCC(=O)O1 (stereo not shown) [γ-caprolactone]	consistent physiological responses							
